From patent publication US4347319A, “Microbiological epoxidation process” (priority 1980, dated 1982) come the findings set out here.

SMILES strings stand for the structures.

Assay [1] has as its system Candida utilis ATCC 26387. The assay is described as follows: Oxidation of sec-alcohols to ketones by cell suspensions of yeasts. The assay is classed as cell-based. The note with it: sec-alcohol to methyl ketone.
Assay [2] deals with Torulopsis sp. Strain A1 (NRRLY-11,419). Described as above. The assay is classed as cell-based. The note with it: sec-alcohol to methyl ketone.
For assay [3], the system named is Kloeckera sp. Strain A2 (NRRLY-11,420). The description is as above. The class given is cell-based. The note with it: sec-alcohol to methyl ketone.
The subject of assay [4] is cell extract of Candida utilis ATCC 26,387. Description: Oxidation of secondary alcohols to methylketone by cell extracts of yeasts. The assay is classed as biochemical.
Assay [5] concerns cell extract of Hansenula polymorpha ATCC 26,012. Described as above. The assay is classed as biochemical.
Assay [6] concerns cell extract of Pichia sp. NRRL-Y-11,328. The description is as above. The assay is classed as biochemical. To be noted: methanol-grown; cell extract + NAD^+; sec. alcohol to methyl ketone; gas chromatography.
Assay [7] relates to cell extract of Torulopsis sp. strain A1 NRRL-Y-11,419. The assay is described as above. The assay is classed as biochemical.
In assay [8] the test system is cell extract of Kloeckera sp. strain A2 NRRL-Y-11,420. The description is as above. The class given is biochemical.
The test system of assay [9] is purified secondary alcohol dehydrogenase from Pichia sp. NRRL Y-11,328. Description: Substrate specificity, electron acceptor and stoichiometry of purified yeast SADH. The assay is classed as biochemical. The note with it: examined spectrophotometrically.
Assay [10] has as its system cell-free soluble extract of Pseudomonas sp. CRL 75 ATCC 21439. The note with it: growth substrate CH3 OH; NAD added.
Procedure: To prepare the cell-free secondary alcohol dehydrogenous (SADH) system, the washed cells were disrupted with a Wave Energy Ultrasonic Oscillator, Model W201 (Wave Energy System, Inc., Newtown, Pa.) and centrifuged at 20,000×g. for 30 minutes. The clear supernatant contained the SADH activity. The enzyme activity was measured with a fluorescence spectrophotometer (Perkin Elmer, Model MPF 44A) by following the formation of reduced NAD (EX 340 nm, Em 460 nm). The formation of reduced NAD was also followed with an absorption spectrophotometer at 340 nm. The assay system (3 ml.) contained: potassium phosphate buffer pH 7.0; 150 μmol.; NAD 1 μmol.; a given amount of enzyme preparation; and secondary alcohol 10 μmol. The reaction was started by the addition of substrate. One unit of enzyme activity represents the reduction of one μmole NAD per minute. Protein concentrations were determined by the Lowry method as referenced above.
Assay [11] deals with Methylomonas methanica (CRL 21 PM7) NRRL B-11,206. Description: Oxidation by washed cell suspensions of methane-grown cells. The assay is classed as cell-based. A digest of the protocol: (§1)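 Washed resting cells from methane-grown cultures oxidise the test substrate, supplied as a 1:1 mix with O2 or as 10 μl liquid, at 30 °C in pH 7.0 phosphate buffer; product formation is followed by GC.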

Assay [12] concerns Methylobacter capsulatus (Y, NRRL-B-11,201). The assay is described as follows: Oxidation by cell suspensions of methane-grown cells. The class given is cell-based. The note with it: growth substrate Methane; n-alkane to secondary alcohol. As to the method:
(§2) The pH of the nutrient medium was adjusted to 7.0 by the addition of acid or base and 50 ml samples of the nutrient medium were charged into a plurality of 300 ml shaker flasks. The shaker flasks were inoculated with an inoculating loop of cells from an agar plate containing homogeneous colonies of the microorganisms on the plate (the purity of the isolates was confirmed by microscopic examination. The isolates had been maintained on agar plates under an atmosphere of methane and air having a 1:1 v/v gas ratio which had been transferred evey two weeks. The gaseous phase of the inoculated flasks was then replaced with a gas mixture comprised of methane and air having a ratio of 1:1 on a v/v basis. The inoculated flasks were sealed air tight and were incubated on a rotary shaker of orbital radius 2.5 cm at 250 rpm and at 30° C. for two days until turbidity in the medium had developed.
(§3) The cells were harvested by centrifugation at 10,000×g. at 4° C. for 30 minutes. The cell pellet was washed twice with a 0.15 M phosphate buffer at a pH of 7.0 (containing 0.002 M MgCl2). The washed cells were then suspended in a 0.15 M phosphate buffer at pH 7.0.
(§4) A 0.5 ml sample of each washed cell suspension (2 mg cells) was put into 10 ml vials at 4° C. which were sealed with a rubber cap. The gaseous phase of the vials was removed with vacuum and then was replaced with a gas mixture of the oxidative substrate (e.g., methane) and oxygen at a 1:1 v/v ratio. The vials were then incubated at 30 ° C. on a rotary shaker at 300 rpm. Samples of product (3 μl) were withdrawn periodically with a microsyringe and the products were analyzed by gas chromatography (ionization flame detector column).
(§5) The conditions for preparing the cell suspensions or the cell-free particulate fractions from methane-grown methylotroph microorganisms is the same as described above.

Assay [13] has as its system Methylococcus capsulatus (Texas, ATCC 19,069). The assay is described as above. The assay is classed as cell-based. The note with it: growth substrate Methane; n-alkane to secondary alcohol. The method, then:
as §2, §3, §4, §5

Assay [14] relates to Methylosinus trichosporium OB3b (NRRL B-11,196). The assay is described as above. To be noted: growth substrate Methane; n-alkane to secondary alcohol. The class given is cell-based. The method, then: as §2, §3, §4, §5
For assay [15], the system named is Methylomonas rosaceus (CRL M7P) NRRL B-11,213. Description: Oxidation by washed cell suspensions of methane-grown cells. To be noted: 30° C., methane to methanol, alkene to 1,2-epoxide. The assay is classed as cell-based. A digest of the protocol:
as §1

Assay [16] relates to Methylomonas rubrum (CRL M6P) NRRL B-11,210. The description is as above. The class given is cell-based. To be noted: methane-grown washed cells, 30° C.; methane to methanol, alkene to 1,2-epoxide. A digest of the protocol:
as §1

Assay [17] relates to methane-grown strain Methylococcus capsulatus NRRL B-11,219. The assay is described as follows: Effect of methane on the epoxidation of propylene by a cell suspension. The class given is cell-based. The note with it: in the presence of methane. From the text: Both the epoxidation of the C2 -C4 1-alkenes and the hydroxylation of methane with the cell suspensions were inhibited by various metal-binding and metal-chelating agents, indicating the involvement of metal(s)-containing enzyme system(s). […] The epoxidation of propylene to propylene oxide by a cell suspension of methane-grown strain Methylococcus capsulatus NRRL B-11,219 was inhibited (50%) in the presence of the hydroxylation substrate, methane (Table XV). […] It is likely that the methane mono-oxygenase enzyme system catalyzes both the epoxidation of alkene and the hydroxylation of methane. May and Abbott publications, supra, have reported that the ω-hydroxylation system from Pseudomonas oleovorans catalyzed both the epoxidation of 1-octene and the hydroxylation of n-octane.

In assay [18] the test system is cell-free particulate fractions derived from the methylotrophic microorganisms. The assay is described as follows: Inhibition of conversion of C3 -C6 n-alkanes to sec. alcohols. The class given is biochemical. The note with it: oxygen and NADH present.
Source text: as §5

The mark [19] stands for this setting: 2-butanol as a substrate, spectrophotometrically.
The mark [20] stands for this setting: methanol-grown, cell extract + NAD^+, sec. alcohol to methyl ketone, gas chromatography.

For the molecule `CCC(C)O` (stereo not shown) [2-Butanol], the “Conversion Rate” value is listed as 5.2 μmoles/hr/mg of protein in assay [1] (growth substrate Ethanol); 6.8 μmoles/hr/mg of protein in assay [1] (growth substrate Methanol); 5.0 μmoles/hr/mg of protein in assay [1] (growth substrate Methylamine); 6.2 μmoles/hr/mg of protein in [1] (growth substrate Methylformate); 4.2 μmoles/hr/mg of protein in assay [1] (growth substrate Propylamine); 4.7 μmoles/hr/mg of protein in assay [2] (growth substrate Ethanol). The “Conversion Rate” value in assay [2] (growth substrate Methanol) is recorded as 4.9 μmoles/hr/mg of protein; in assay [2] (growth substrate Methylamine) it was 4.5 μmoles/hr/mg of protein; in assay [2] (growth substrate Methylformate), 4.9 μmoles/hr/mg of protein; in assay [2] (growth substrate Propylamine) it was 3.8 μmoles/hr/mg of protein; in [3] (growth substrate Ethanol) it was 5.7 μmoles/hr/mg of protein; in assay [3] (growth substrate Methanol), 5.9 μmoles/hr/mg of protein. In addition, the “Conversion Rate” value was 5.4 μmoles/hr/mg of protein in [3] (growth substrate Methylamine); 5.9 μmoles/hr/mg of protein in [3] (growth substrate Methylformate); 4.2 μmoles/hr/mg of protein in assay [3] (growth substrate Propylamine); 4.92 μmoles/hr/mg Protein in [4] (setting [20]); 5.2 μmoles/hr/mg Protein in assay [5] (setting [20]); 6.2 μmoles/hr/mg Protein in assay [6]. In addition, the figures for the “Conversion Rate” value in [7] (setting [20]) and in [8] (setting [20]) were 4.9 μmoles/hr/mg Protein and 5.9 μmoles/hr/mg Protein, respectively. In addition, the specific activities in [4] (setting [19]) is 78 nmoles NAD^+ reduced per min. per mg. protein; in assay [5] (setting [19]), 85 nmoles NAD^+ reduced per min. per mg. protein; in [7] (setting [19]), 62 nmoles NAD^+ reduced per min. per mg. protein; in assay [8] (setting [19]) it was 90 nmoles NAD^+ reduced per min. per mg. protein. The “oxidation by the purified enzyme” value in assay [9] was “catalyzed the oxidation”. Also, the “Conversion Rate 2-butanol to 2-butanone” value in assay [10] was found to be 25.0 nmoles/min/mg protein.
With `CCCC` [Butane], in assay [11] (methane-grown cells, butane to 2-butanone), the “Conversion Rate to Ketone” value is 1.5 μmoles/hr/mg Protein. The results for the “Conversion Rate” value in assay [12], in assay [13] and in [14] were 0.09 μmoles/hr/^5 mg. protein, 1.0 μmoles/hr/^5 mg. protein and 1.5 μmoles/hr/^5 mg. protein, respectively.
Turning to `C` [Methane], the “Oxidative Conversion Rates” value is reported as 1.4 μmole/hr/mg protein in assay [15] and 0.5 μmole/hr/mg protein in assay [16]. The “inhibition of the epoxidation of propylene to propylene oxide” value in assay [17] came to 50%.
Consider `CCC` [Propane], for which the “Conversion Rate” value in [12] is given as 0.20 μmoles/hr/^5 mg. protein; in [13], 1.1 μmoles/hr/^5 mg. protein; in assay [14], 2.5 μmoles/hr/^5 mg. protein.
Regarding `C=CC` [Propylene], the “Oxidative Conversion Rates” value in [11] (methane-grown washed cells, 30° C., methane to methanol, alkene to 1,2-epoxide) turned out to be 2.4 μmole/hr/mg protein; in [15], 2.0 μmole/hr/mg protein; in assay [16] it was 1.0 μmole/hr/mg protein. Moreover, the “inhibition of conversion of n-alkanes to sec. alcohols” value in [18] is reported as “inhibited”.
